Assay results as given in patent US20230167122A1, “PESTICIDALLY ACTIVE HETEROCYCLIC DERIVATIVES WITH SULFUR CONTAINING SUBSTITUENTS” (SYNGENTA CROP PROTECTION AG, priority 2020, published 2023).

Columns and labels:
Format in all cases: in vivo
[1] = test system: Bemisia tabaci (Cotton White Fly); assay: Example B1: Activity against Bemisia tabaci (cotton white fly), sprayed cotton leaf discs; settings: foliar, 144 h, application rate of 200 ppm, adult white flies on cotton leaf discs, 6 days after incubation
Protocol: Example B1: Activity Against Bemisia tabaci (Cotton White Fly)
Cotton leaf discs were placed on agar in 24-well microtiter plates and sprayed with aqueous test solutions prepared from 10′000 ppm DMSO stock solutions. After drying the leaf discs were infested with adult white flies. The samples were checked for mortality 6 days after incubation.

[2] = test system: Diabrotica balteata (Corn Root Worm); assay: Example B2: Activity against Diabrotica balteata (corn root worm), sprayed maize sprouts; settings: 96 h, application rate of 200 ppm, L2 larvae on maize sprouts, 4 days after infestation, read-out: effect in at least one of the two categories (mortality or growth inhibition)
Protocol: Example B2: Activity Against Diabrotica balteata (Corn Root Worm)
Maize sprouts placed onto an agar layer in 24-well microtiter plates were treated with aqueous test solutions prepared from 10′000 ppm DMSO stock solutions by spraying. After drying, the plates were infested with L2 larvae (6 to 10 per well). The samples were assessed for mortality and growth inhibition in comparison to untreated samples 4 days after infestation.

[3] = test system: Euschistus heros (Neotropical Brown Stink Bug); assay: Example B3: Activity against Euschistus heros (neotropical brown stink bug), sprayed soybean leaf; settings: 120 h, application rate of 200 ppm, N-2 nymphs on soybean leaf, 5 days after infestation, read-out: effect in at least one of the two categories (mortality or growth inhibition)
Protocol: Example B3: Activity Against Euschistus heros (Neotropical Brown Stink Bug)
Soybean leaf on agar in 24-well microtiter plates were sprayed with aqueous test solutions prepared from 10′000 ppm DMSO stock solutions. After drying the leaf were infested with N-2 nymphs. The samples were assessed for mortality and growth inhibition in comparison to untreated samples 5 days after infestation.

[4] = test system: Plutella xylostella (Diamond Back Moth); assay: Example B5: Activity against Plutella xylostella (diamond back moth), eggs, artificial diet; settings: 192 h, application rate of 200 ppm, 8 days after infestation, read-out: effect in at least one of the two categories (mortality or growth inhibition)
Protocol: Example B5: Activity Against Plutella xylostella (Diamond Back Moth)
24-well microtiter plates with artificial diet were treated with aqueous test solutions prepared from 10′000 ppm DMSO stock solutions by pipetting. After drying, Plutella eggs were pipetted through a plastic stencil onto a gel blotting paper and the plate was closed with it. The samples were assessed for mortality and growth inhibition in comparison to untreated samples 8 days after infestation.

[5] = test system: Myzus persicae (Green Peach Aphid); assay: Example B6: Activity against Myzus persicae (green peach aphid), sprayed sunflower leaf discs; settings: foliar, 144 h, application rate of 200 ppm, aphid population of mixed ages on sunflower leaf discs, 6 days after infestation
Protocol: Example B6: Activity Against Myzus persicae (Green Peach Aphid)
(§1) Sunflower leaf discs were placed on agar in a 24-well microtiter plate and sprayed with aqueous test solutions prepared from 10′000 ppm DMSO stock solutions. After drying, the leaf discs were infested with an aphid population of mixed ages. The samples were assessed for mortality 6 days after infestation.

[6] = test system: Spodoptera littoralis (Egyptian Cotton Leaf Worm); assay: Example B9: Activity against Spodoptera littoralis (Egyptian cotton leaf worm), sprayed cotton leaf discs; settings: foliar, 72 h, application rate of 200 ppm, L1 larvae on cotton leaf discs, 3 days after infestation
Protocol: Example B9: Activity Against Spodoptera littoralis (Egyptian Cotton Leaf Worm)
Cotton leaf discs were placed onto agar in 24-well microtiter plates and sprayed with aqueous test solutions prepared from 10′000 ppm DMSO stock solutions. After drying the leaf discs were infested with five L1 larvae. The samples were assessed for mortality, anti-feeding effect, and growth inhibition in comparison to untreated samples 3 days after infestation. Control of Spodoptera littoralis by a test sample is given when at least one of the categories mortality, anti-feedant effect, and growth inhibition is higher than the untreated sample.

[7] = test system: Tetranychus urticae (Two-Spotted Spider Mite); assay: Example B10: Activity against Tetranychus urticae (two-spotted spider mite), sprayed bean leaf discs; settings: foliar, 192 h, application rate of 200 ppm, mixed population (mobile stages) on bean leaf discs, 8 days after infestation
Protocol: Example B10: Activity Against Tetranychus urticae (Two-Spotted Spider Mite)
Bean leaf discs on agar in 24-well microtiter plates were sprayed with aqueous test solutions prepared from 10′000 ppm DMSO stock solutions. After drying the leaf discs were infested with a mite population of mixed ages. The samples were assessed for mortality on mixed population (mobile stages) 8 days after infestation.

[8] = test system: Nilaparvata lugens (Brown Plant Hopper); assay: Example B11: Activity against Nilaparvata lugens (brown plant hopper), larvicide, feeding/contact; settings: 168 h, application rate of 50 ppm, N3 nymphs on sprayed rice plants, 7 days after the treatment
Protocol: Example B11: Activity Against Nilaparvata lugens (Brown Plant Hopper) Larvicide, Feeding/Contact
Rice plants were treated with the diluted test solutions in a spray chamber. After drying plants were infested with ˜20 N3 nymphs. 7 days after the treatment samples were assessed for mortality and growth regulation.

[9] = test system: Nilaparvata lugens (Brown Plant Hopper); assay: Example B12: Activity against Nilaparvata lugens (brown plant hopper), larvicide, systemic into water; settings: 168 h, application rate of 12.5 ppm, systemic into nutritive solution, rice plants, N3 nymphs, 7 days after infestation
Protocol: Example B12: Activity Against Nilaparvata lugens (Brown Plant Hopper) Larvicide, Systemic into Water
Rice plants cultivated in a nutritive solution were treated with the diluted test solutions into nourishing cultivation system. 1 day after application plants were infested with ˜20 N3 nymphs. 7 days after infestation samples were assessed for mortality and growth regulation.

[10] = test system: Frankliniella occidentalis (Western Flower Thrips); assay: Example B4: Activity against Frankliniella occidentalis (western flower thrips), sprayed sunflower leaf discs; settings: foliar, 168 h, application rate of 200 ppm, population of mixed ages on sunflower leaf discs, 7 days after infestation
Protocol: Example B4: Activity Against Frankliniella occidentalis (Western Flower Thrips)
as §1, with “in” for “in a”, “plates” for “plate”, “[…]” for “10′000 ppm”, “drying” for “drying,”, “a Frankliniella” for “an aphid”, “7” for “6”

[11] = test system: Plutella xylostella (Diamond Back Moth); assay: Example B8: Activity against Plutella xylostella (diamond back moth), L2 larvae, artificial diet; settings: 120 h, application rate of 200 ppm, 5 days after infestation, read-out: effect in at least one of the two categories (mortality or growth inhibition)
Protocol: Example B8: Activity Against Plutella xylostella (Diamond Back Moth)
24-well microtiter plates with artificial diet were treated with aqueous test solutions prepared from 10′000 ppm DMSO stock solutions by pipetting. After drying, the plates were infested with L2 larvae (10 to 15 per well). The samples were assessed for mortality and growth inhibition in comparison to untreated samples 5 days after infestation.

Cn1c(-c2ncc(OC(C)(C)C#N)cc2S(=O)(=O)CC2CC2)nc2cc(C(F)(F)F)nnc21 [Compound P1, 2-[[5-(cyclopropylmethylsulfonyl)-6-[7-methyl-3-(trifluoromethyl)imidazo[4,5-c]pyridazin-6-yl]-3-pyridyl]oxy]-2-methyl-propanenitrile]
≥ 80%: mortality at 200 ppm [1] | percent effect (mortality or growth inhibition) at 200 ppm [2] | percent effect (mortality or growth inhibition) at 200 ppm [3] | percent effect (mortality or growth inhibition) at 200 ppm [4] | mortality at 200 ppm [5] | percent control (mortality, anti-feedant effect or growth inhibition) at 200 ppm [6] | mortality at 200 ppm [7] | mortality at 50 ppm [8] | mortality at 12.5 ppm [9]

CCS(=O)(=O)c1cc(OC(C)(C)C#N)cnc1-c1nc2cc(C(F)(F)F)cnc2n1C [Compound P3, 2-[[5-ethylsulfonyl-6-[3-methyl-6-(trifluoromethyl)imidazo[4,5-b]pyridin-2-yl]-3-pyridyl]oxy]-2-methyl-propanenitrile]
≥ 80%: mortality at 200 ppm [1] | percent effect (mortality or growth inhibition) at 200 ppm [2] | percent effect (mortality or growth inhibition) at 200 ppm [3] | mortality at 200 ppm [10] | percent effect (mortality or growth inhibition) at 200 ppm [4] | mortality at 200 ppm [5] | percent control (mortality, anti-feedant effect or growth inhibition) at 200 ppm [6]

CCn1c(C(F)(F)F)cc2nc(-c3ncc(OC(C)(C)C#N)cc3S(=O)(=O)CC)n(C)c2c1=O [Compound P6, 2-[[6-[5-ethyl-3-methyl-4-oxo-6-(trifluoromethyl)imidazo[4,5-c]pyridin-2-yl]-5-ethylsulfonyl-3-pyridyl]oxy]-2-methyl-propanenitrile]
≥ 80%: mortality at 200 ppm [1] | percent effect (mortality or growth inhibition) at 200 ppm [2] | percent effect (mortality or growth inhibition) at 200 ppm [3] | mortality at 200 ppm [10] | mortality at 200 ppm [5] | percent effect (mortality or growth inhibition) at 200 ppm [11] | percent control (mortality, anti-feedant effect or growth inhibition) at 200 ppm [6]

CCS(=O)(=O)c1cc(OC(C)(C)C#N)cnc1-c1nc2cc(C(F)(F)F)n(C3CC3)c(=O)c2n1C [Compound P7, 2-[[6-[5-cyclopropyl-3-methyl-4-oxo-6-(trifluoromethyl)imidazo[4,5-c]pyridin-2-yl]-5-ethylsulfonyl-3-pyridyl]oxy]-2-methyl-propanenitrile]
≥ 80%: percent effect (mortality or growth inhibition) at 200 ppm [2] | percent effect (mortality or growth inhibition) at 200 ppm [3] | mortality at 200 ppm [10] | percent effect (mortality or growth inhibition) at 200 ppm [11] | percent control (mortality, anti-feedant effect or growth inhibition) at 200 ppm [6]

CCS(=O)(=O)c1cc(OC(C)(C)C#N)cnc1-c1cn2ccc(C(F)(F)F)cc2n1 [Compound P8, 2-[[5-ethylsulfonyl-6-[7-(trifluoromethyl)imidazo[1,2-a]pyridin-2-yl]-3-pyridyl]oxy]-2-methyl-propanenitrile]
≥ 80%: percent effect (mortality or growth inhibition) at 200 ppm [2] | percent effect (mortality or growth inhibition) at 200 ppm [3] | mortality at 200 ppm [10] | mortality at 200 ppm [5] | percent effect (mortality or growth inhibition) at 200 ppm [11] | percent control (mortality, anti-feedant effect or growth inhibition) at 200 ppm [6] | mortality at 200 ppm [7]

CCS(=O)(=O)c1cc(OC(C)(C)C#N)cnc1-c1cn2ncc(C(F)(F)F)cc2n1 [Compound P9, 2-[[5-ethylsulfonyl-6-[7-(trifluoromethyl)imidazo[1,2-b]pyridazin-2-yl]-3-pyridyl]oxy]-2-methyl-propanenitrile]
≥ 80%: mortality at 200 ppm [1] | percent effect (mortality or growth inhibition) at 200 ppm [2] | mortality at 200 ppm [10] | mortality at 200 ppm [5] | percent effect (mortality or growth inhibition) at 200 ppm [11] | percent control (mortality, anti-feedant effect or growth inhibition) at 200 ppm [6] | mortality at 50 ppm [8] | mortality at 12.5 ppm [9]

CCS(=O)(=O)c1cc(OC(C)(C)C#N)ccc1-n1cc2cnc(C(F)(F)F)cc2n1 [Compound P10, 2-[3-ethylsulfonyl-4-[6-(trifluoromethyl)pyrazolo[4,3-c]pyridin-2-yl]phenoxy]-2-methyl-propanenitrile]
≥ 80%: mortality at 200 ppm [1] | percent effect (mortality or growth inhibition) at 200 ppm [2] | percent effect (mortality or growth inhibition) at 200 ppm [3] | mortality at 200 ppm [10] | mortality at 200 ppm [5] | percent effect (mortality or growth inhibition) at 200 ppm [11] | percent control (mortality, anti-feedant effect or growth inhibition) at 200 ppm [6] | mortality at 200 ppm [7] | mortality at 50 ppm [8] | mortality at 12.5 ppm [9]

CCS(=O)(=O)c1cc(OC(C)(C)C#N)ccc1-c1nc2cc(C(F)(F)F)nnc2n1C [Compound P12, 2-[3-ethylsulfonyl-4-[7-methyl-3-(trifluoromethyl)imidazo[4,5-c]pyridazin-6-yl]phenoxy]-2-methyl-propanenitrile]
≥ 80%: mortality at 200 ppm [1] | percent effect (mortality or growth inhibition) at 200 ppm [2] | percent effect (mortality or growth inhibition) at 200 ppm [3] | mortality at 200 ppm [10] | mortality at 200 ppm [5] | percent effect (mortality or growth inhibition) at 200 ppm [11] | percent control (mortality, anti-feedant effect or growth inhibition) at 200 ppm [6]

CCS(=O)(=O)c1cc(OC(C)(C)C#N)cnc1-c1nc2cc(SC(F)(F)F)ccc2n1C [Compound P13, 2-[[5-ethylsulfonyl-6-[1-methyl-5-(trifluoromethylsulfanyl)benzimidazol-2-yl]-3-pyridyl]oxy]-2-methyl-propanenitrile]
≥ 80%: mortality at 200 ppm [1] | percent effect (mortality or growth inhibition) at 200 ppm [2] | percent effect (mortality or growth inhibition) at 200 ppm [3] | mortality at 200 ppm [10] | percent effect (mortality or growth inhibition) at 200 ppm [4] | mortality at 200 ppm [5] | percent control (mortality, anti-feedant effect or growth inhibition) at 200 ppm [6]

CCS(=O)(=O)c1cc(OC(C)(C)C#N)cnc1-c1nc2cc(S(=O)(=O)C(F)(F)F)ccc2n1C [Compound P14, 2-[[5-ethylsulfonyl-6-[1-methyl-5-(trifluoromethylsulfonyl)benzimidazol-2-yl]-3-pyridyl]oxy]-2-methyl-propanenitrile]
≥ 80%: mortality at 200 ppm [1] | percent effect (mortality or growth inhibition) at 200 ppm [2] | percent effect (mortality or growth inhibition) at 200 ppm [3] | mortality at 200 ppm [10] | percent effect (mortality or growth inhibition) at 200 ppm [4] | mortality at 200 ppm [5] | percent control (mortality, anti-feedant effect or growth inhibition) at 200 ppm [6]
